The results in this text go back to patent US4642364A, “Unsaturated eicosanoic acids” (Hoffmann-La Roche Inc., priority 1986, dated 1987).

By IC50 is commonly meant the concentration needed to halve the response being measured. Read a high IC50 as a need for much substance.

For this assay, the target named is T1, Δ^12-lipoxygenase (Human Platelet) (Homo sapiens, UniProt P18054).
T1 construct: using human platelets as the enzyme source; from tissue; host or cells: human platelets (washed, lysed by freezing and thawing; 100,000×g supernatant, 50% ammonium sulfate precipitate)
T1 sequence (P18054 1-663): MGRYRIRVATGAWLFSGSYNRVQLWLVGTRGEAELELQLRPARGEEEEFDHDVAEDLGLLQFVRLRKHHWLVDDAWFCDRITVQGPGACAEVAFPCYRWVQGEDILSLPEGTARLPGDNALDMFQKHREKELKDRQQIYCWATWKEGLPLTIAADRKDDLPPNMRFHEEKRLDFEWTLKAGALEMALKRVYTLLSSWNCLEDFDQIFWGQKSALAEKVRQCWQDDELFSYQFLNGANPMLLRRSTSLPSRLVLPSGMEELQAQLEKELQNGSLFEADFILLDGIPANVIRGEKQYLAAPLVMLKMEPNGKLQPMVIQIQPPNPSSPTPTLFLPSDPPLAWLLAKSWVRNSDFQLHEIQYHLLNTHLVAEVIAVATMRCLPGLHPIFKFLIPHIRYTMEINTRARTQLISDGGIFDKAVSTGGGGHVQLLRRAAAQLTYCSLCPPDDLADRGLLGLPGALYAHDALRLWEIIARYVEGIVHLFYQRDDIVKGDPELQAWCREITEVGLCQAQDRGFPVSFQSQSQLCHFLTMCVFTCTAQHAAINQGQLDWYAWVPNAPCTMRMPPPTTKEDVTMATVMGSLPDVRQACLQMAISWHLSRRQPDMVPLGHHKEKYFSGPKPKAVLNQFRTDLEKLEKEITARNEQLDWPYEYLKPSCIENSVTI
Nature of the assay: Δ^12-lipoxygenase assay (conversion of 14C-arachidonic acid to 12-HETE, human platelet enzyme). In kind it is biochemical. The note with it: 3-4 μM arachidonic acid. As to the method: Δ^12 -lipoxygenase activity was measured by following the conversion of ^14 C-arachidonic acid (AA) to ^14 C-12-hydroxy-5,8,10,14-eicosatetraenoic acid (12-HETE) using human platelets as the enzyme source. Washed human platelets from approximately 2000 ml of blood were suspended in 50 ml of phosphate buffered saline (PBS) and then lysed by freezing and thawing (3 times). The platelet lysate was homogenized using a glass-teflon homogenizer and then particulate material was sedimented by centifugation at 100,000×g for 1 hr and the sediment was discarded. The supernatant was made 50% by weight saturated with respect to (NH4)2 SO4 by adding solid ammonium sulfate. The resultant suspension was allowed to stand at 0° overnight. The precipitate was collected by centrifugation and was dissolved in approximately 25 ml of PBS. This solution was the enzyme solution utilized to catalyze the conversion of AA to 12 HETE.
In order to test the compounds, separate incubation tubes for each of the compounds and for concentrations of these compounds were prepared in an ice bath. These tubes each contained 140 μl of PBS containing 1.78 mM glutathione, 10 μl of test drug in ethanol, 50 μl of platelet supernatant, and 50 μl of ^14 C-AA. […] Incubation tubes were prepared containing only buffer ethanol and ^14 c-AA were included as substrate controls. The final concentration of AA added as its ammonium salt in PBS, in each of the incubation tubes 3-4 μM. Sufficient enzyme solution prepared as above was added so that, under the conditions of the assay, approximately 80-90% by weight of the ^14 C-AA was converted to 12-HETE, as determined by prior controls. The tubes were incubated at 37° for 2 min, the reaction was stopped by the addition, while mixing on a mixer, of 2 ml of diethyl ether and 50 μl of 1M citric acid. The ether in the presence of citric acid extracted 12-HETE and AA from enzyme in the reaction medium in each of the samples. The ether extract was evaporated to dryness under nitrogen and then the residue was dissolved in 50 μl of chloroform:methanol (2:1 parts by volume). The dissolved residue containing 12-HETE and AA was applied, as rapidly as possible, to a glass fiber sheet impregnated with silica gel and then the chromatogram was developed using isooctane:methylethylketone:acetic acid (100:9:1 parts by volume) as solvent. Radioactive products and unconverted ^14 C-AA were located using a thin-layer chromatography scanner. The appropriate regions of the chromatogram were cut out, then the radioactivity quantitated using a liquid scintillation counter. The amount of ^14 C-AA converted to product is used as a measure of Δ^12 -lipoxygenase activity.
The mean percent inhibition was calculated by multiplying 100 times the following fraction: [formula] at each concentration of the various test drugs was calculated.
In the case of `CCCCCC#CCC#CCCCCCCCC(=O)O` [9,12-Octadecadiynoic Acid, reference compound], the IC50 was ≥ 100 µM.

In the case of `CCCCC/C=C\C/C=C\CC#CCC#CCCCC(=O)O` [Compound 3, (Z,Z)-11,14-eicosadien-5,8-diynoic acid], the IC50 was 10 to 100 µM.

For `CCCCCCCC/C=C\CC#CCC#CCCCC(=O)O` [Compound 5, (Z,Z)-11-eicosen-5,8-diynoic acid], the IC50 came out at 13 µM. In other words, the double-digit micromolar range.

Take `CCCCC/C=C\CCCCC#CCC#CCCCC(=O)O` [Compound 6, (Z)-14-eicosen-5,8-diynoic acid]: the IC50 is ~100 µM.
